# Experimental data as given in BindingDB's records for doi:10.1021/jm00040a004 (Glaxo Group Research, 1994).
# Experiment: In vitro kappa-opioid receptor agonist activity in isolated rabbit vas deferens assay
row,SMILES,IC50 [nM]
1,O=C(Cc1ccc(Cl)c(Cl)c1)N1CCc2c(O)cccc2C1CN1CCCC1 (stereo not given),0.11
2,"O=C1CCN(CC2c3ccoc3CCN2C(=O)Cc2ccc(Cl)c(Cl)c2)C1 (stereo not given) [1-{5-[2-(3,4-Dichloro-phenyl)-acetyl]-4,5,6,7-tetrahydro-furo[3,2-c]pyridin-4-ylmethyl}-pyrrolidin-3-one]",6
3,"CN(C)CC1c2ccoc2CCN1C(=O)Cc1ccc(Cl)c(Cl)c1 (stereo not given) [2-(3,4-Dichloro-phenyl)-1-(4-dimethylaminomethyl-6,7-dihydro-4H-furo[3,2-c]pyridin-5-yl)-ethanone]",22
4,"O=C(Cc1ccc(Cl)c(Cl)c1)N1CCc2occc2C1CN1CCCC1 (stereo not given) [2-(3,4-Dichloro-phenyl)-1-(4-pyrrolidin-1-ylmethyl-6,7-dihydro-4H-furo[3,2-c]pyridin-5-yl)-ethanone]",15
5,"O=C(Cc1ccc(Cl)c(Cl)c1)N1CCc2occc2C1CN1CC=CCC1 (stereo not given) [2-(3,4-Dichloro-phenyl)-1-[4-(3,6-dihydro-2H-pyridin-1-ylmethyl)-6,7-dihydro-4H-furo[3,2-c]pyridin-5-yl]-ethanone]",1.4
6,"Cc1cc2c(o1)CCN(C(=O)Cc1ccc(Cl)c(Cl)c1)C2CN1CCC(O)C1 (stereo not given) [2-(3,4-Dichloro-phenyl)-1-[4-(3-hydroxy-pyrrolidin-1-ylmethyl)-2-methyl-6,7-dihydro-4H-furo[3,2-c]pyridin-5-yl]-ethanone]",0.39
7,"O=C(Cc1ccc(Cl)c(Cl)c1)N1CCc2occc2C1CN1CCC(O)C1 (stereo not given) [2-(3,4-Dichloro-phenyl)-1-[4-(3-hydroxy-pyrrolidin-1-ylmethyl)-6,7-dihydro-4H-furo[3,2-c]pyridin-5-yl]-ethanone]",2.7
8,"O=C(Cc1ccc(Cl)c(Cl)c1)N1CCc2c(O)cccc2C1CN1CCC(O)C1 (stereo not given) [2-(3,4-Dichloro-phenyl)-1-[5-hydroxy-1-(3-hydroxy-pyrrolidin-1-ylmethyl)-3,4-dihydro-1H-isoquinolin-2-yl]-ethanone]",3.8
9,"O=C(Cc1ccc(Cl)c(Cl)c1)N1CCc2occc2[C@@H]1CN1CC[C@H](O)C1 [2-(3,4-Dichloro-phenyl)-1-[(R)-4-((S)-3-hydroxy-pyrrolidin-1-ylmethyl)-6,7-dihydro-4H-furo[3,2-c]pyridin-5-yl]-ethanone]",1.1
10,"O=C(Cc1ccc(Cl)c(Cl)c1)N1CCc2occc2[C@H]1CN1CC[C@@H](O)C1 [(RS)-2-(3,4-Dichloro-phenyl)-1-[4-(3-hydroxy-pyrrolidin-1-ylmethyl)-6,7-dihydro-4H-furo[3,2-c]pyridin-5-yl]-ethanone(GR 91272)]",3.4
